Reference: US11414384B2, “P300/CBP hat inhibitors” (Constellation Pharmaceuticals, Inc., priority 2018, dated 2022)

Target: p300 HAT domain (residues 1287-1666) (Homo sapiens (Human), UniProt Q09472)
Assay: p300 HAT SPA assay (scintillation proximity assay, acetylation of biotinylated H3(1-21) peptide)
Type: biochemical
Conditions: p300 HAT domain; average of at least 2 replicate titrations; read-out: P300 HAT SPA IC50
Protocol: In a typical experiment the p300 HAT inhibitory activity of the compounds described herein was determined in accordance with the following experimental method.
The expressed protein was purified by Ni2+ affinity, followed by anion exchange chromatography. Appropriate fractions were pooled and buffer exchanged into 20 mM Hepes pH 7.5, 150 mM NaCl, and 1 mM TCEP.
35 μL of the reaction volume was transferred to a 384-well streptavidin FlashPlate (PerkinElmer) using a Bravo liquid handler (Velocity 11) and incubated for 1.5 hr at RT. […] Data were analyzed in Genedata to determine inhibitor IC50 values.

Sequence of p300 HAT domain (residues 1287-1666) (Q09472 1287-1666): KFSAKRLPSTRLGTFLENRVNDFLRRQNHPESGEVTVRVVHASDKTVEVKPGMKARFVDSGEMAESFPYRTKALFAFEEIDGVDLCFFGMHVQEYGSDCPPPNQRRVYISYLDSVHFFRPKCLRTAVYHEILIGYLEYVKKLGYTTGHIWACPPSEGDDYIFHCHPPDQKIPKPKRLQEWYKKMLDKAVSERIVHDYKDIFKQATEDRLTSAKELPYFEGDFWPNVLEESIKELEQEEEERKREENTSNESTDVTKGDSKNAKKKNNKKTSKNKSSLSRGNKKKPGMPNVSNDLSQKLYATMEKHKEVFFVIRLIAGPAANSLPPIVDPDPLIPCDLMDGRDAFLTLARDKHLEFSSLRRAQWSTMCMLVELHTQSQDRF

| Structure (SMILES) | IC50 [µM] |
| --- | --- |
| CC(NCCc1ccc(Cl)cc1)C(=O)c1c[nH]c2ccccc12 (single isomer, unassigned) [23 Isomer 2] | > 60 |
| O=C(c1c[nH]c2ccccc12)C(NCCc1ccc(Cl)cc1)C1CC1 (single isomer, unassigned) [24 Isomer 1] | 52.2 |
| O=C(c1c[nH]c2ccccc12)C(NCCc1ccc(Cl)cc1)C1CC1 (single isomer, unassigned) [24 Isomer 2] | > 60 |
| O=C(c1c[nH]c2ccccc12)C(NCCc1ccc(Cl)cc1)C1CCCC1 (single isomer, unassigned) [25 Isomer 1] | > 60 |
| O=C(c1c[nH]c2ccccc12)C(NCCc1ccc(Cl)cc1)C1CCCC1 (single isomer, unassigned) [25 Isomer 2] | > 60 |
| CC(Cc1ccc(Cl)cc1)NC(C(=O)c1c[nH]c2ccccc12)c1ccccc1 (single isomer, unassigned) [27 Isomer 2] | > 60 |
| CC(Cc1ccc(Cl)cc1)NC(C(=O)c1c[nH]c2ccccc12)c1ccccc1 (single isomer, unassigned) [27 Isomer 3] | > 60 |
| CC(Cc1ccc(Cl)cc1)NC(C(=O)c1c[nH]c2ccccc12)c1ccccc1 (single isomer, unassigned) [27 Isomer 4] | > 60 |
| COc1ccc(CCNC(C(=O)c2c[nH]c3c(Cl)cccc23)c2ccccc2)cc1 (single isomer, unassigned) [28 Isomer 1] | 7.58 |
| COc1ccc(CCNC(C(=O)c2c[nH]c3c(Cl)cccc23)c2ccccc2)cc1 (single isomer, unassigned) [28 Isomer 2] | 1.37 |
| O=C(c1c[nH]c2ccccc12)C(NCCc1cn[nH]c1)c1ccccc1 (single isomer, unassigned) [34 Isomer 1] | > 60 |
| O=C(c1c[nH]c2ccccc12)C(NCCc1cn[nH]c1)c1ccccc1 (single isomer, unassigned) [34 Isomer 2] | 24.7 |
| Cn1cc(CCNC(C(=O)c2c[nH]c3ccccc23)c2ccccc2)cn1 (single isomer, unassigned) [35 Isomer 1] | 39.8 |
| Cn1cc(CCNC(C(=O)c2c[nH]c3ccccc23)c2ccccc2)cn1 (single isomer, unassigned) [35 Isomer 2] | 43.5 |
| O=C(c1c[nH]c2ccccc12)C(NCCn1ccnc1)c1ccccc1 (single isomer, unassigned) [36 Isomer 1] | > 60 |
| O=C(c1c[nH]c2ccccc12)C(NCCn1ccnc1)c1ccccc1 (single isomer, unassigned) [36 Isomer 2] | > 60 |
| O=C(c1c[nH]c2ccccc12)C(NCCn1cnc2ccccc21)c1ccccc1 (single isomer, unassigned) [37 Isomer 1] | > 60 |
| O=C(c1c[nH]c2ccccc12)C(NCCn1cnc2ccccc21)c1ccccc1 (single isomer, unassigned) [37 Isomer 2] | > 60 |
| Cc1ccc(CCNC(C(=O)c2c[nH]c3ccccc23)c2ccccc2)cc1 (single isomer, unassigned) [38 Isomer 1] | 19 |
| CN(C)c1ccc(CCNC(C(=O)c2c[nH]c3ccccc23)c2ccccc2)cc1 (single isomer, unassigned) [39 Isomer 1] | > 60 |

| Structure (SMILES) | IC50 [µM] |
| --- | --- |
| O=C(c1c[nH]c2ccccc12)C(NCCc1ccc(OC(F)(F)F)cc1)c1ccccc1 (single isomer, unassigned) [40 Isomer 1] | > 60 |
| O=C(c1c[nH]c2ccccc12)C(NCCN1CCCCC1=O)c1ccccc1 (single isomer, unassigned) [41 Isomer 1] | > 60 |
| O=C(c1c[nH]c2ccccc12)C(NCCN1CCCCC1=O)c1ccccc1 (single isomer, unassigned) [41 Isomer 2] | > 60 |
| Cc1ccc2c(C(=O)C(NCCc3ccc(F)cc3)c3ccccc3)c[nH]c2c1 (single isomer, unassigned) [48 Isomer 1] | > 60 |
| CN(C)C(=O)CCc1ccc2c(C(=O)C(NCCc3ccc(F)cc3)c3ccccc3)c[nH]c2c1 (single isomer, unassigned) [49 Isomer 1] | > 30 |
| NS(=O)(=O)c1ccc(CCNC(C(=O)c2c[nH]c3c(C(F)(F)F)cccc23)c2ccccc2)cc1 (single isomer, unassigned) [50 Isomer 1] | 6.93 |
| NS(=O)(=O)c1ccc(CCNC(C(=O)c2c[nH]c3c(C(F)(F)F)cccc23)c2ccccc2)cc1 (single isomer, unassigned) [50 Isomer 2] | > 30 |
| COc1ccc2c(C(=O)C(NCCc3ccc(S(N)(=O)=O)cc3)c3ccccc3)c[nH]c2c1 (single isomer, unassigned) [51 Isomer 1] | > 30 |
| O=C(c1c[nH]c2ccccc12)C(NCCc1ccc(Cl)nc1)c1ccccc1 (single isomer, unassigned) [52 Isomer 1] | 15.2 |
| O=C(c1c[nH]c2ccccc12)C(NCCc1ccc(Cl)nc1)c1ccccc1 (single isomer, unassigned) [52 Isomer 2] | 2.83 |
| CCNc1ccc(CCNC(C(=O)c2c[nH]c3ccccc23)c2ccccc2)cn1 (single isomer, unassigned) [53 Isomer 1] | > 30 |
| COCCNc1ccc(CCNC(C(=O)c2c[nH]c3ccccc23)c2ccccc2)cn1 (single isomer, unassigned) [54 Isomer 1] | > 30 |
| COCCNc1ccc(CCNC(C(=O)c2c[nH]c3ccccc23)c2ccccc2)cn1 (single isomer, unassigned) [54 Isomer 2] | 15.7 |
| NS(=O)(=O)c1ccc(CCNC(C(=O)c2c[nH]c3c(Cl)c(Cl)ccc23)c2ccccc2)cc1 (single isomer, unassigned) [55 Isomer 1] | 7.83 |
| NS(=O)(=O)c1ccc(CCNC(C(=O)c2c[nH]c3c(Cl)c(Cl)ccc23)c2ccccc2)cc1 (single isomer, unassigned) [55 Isomer 2] | > 30 |
| Cc1ccc2c(C(=O)C(NCCc3ccc(S(N)(=O)=O)cc3)c3ccccc3)c[nH]c2c1 (single isomer, unassigned) [56 Isomer 1] | > 60 |
| O=C(c1c[nH]c2ccccc12)C(NCCc1ccc(-c2c[nH]nn2)cc1)c1ccccc1 (single isomer, unassigned) [57 Isomer 1] | > 5 |
| O=C(c1c[nH]c2ccccc12)C(NCCc1ccc(-c2c[nH]nn2)cc1)c1ccccc1 (single isomer, unassigned) [57 Isomer 2] | 0.287 |
| N#Cc1ccc(CCNC(C(=O)c2c[nH]c3ccccc23)c2ccccc2)cc1 (single isomer, unassigned) [58 Isomer 1] | 25.3 |
| CCC(CNC(C(=O)c1c[nH]c2ccccc12)c1ccccc1)c1ccc(Cl)cc1 (single isomer, unassigned) [59 Isomer 1] | > 30 |

| Structure (SMILES) | IC50 [µM] |
| --- | --- |
| CCC(CNC(C(=O)c1c[nH]c2ccccc12)c1ccccc1)c1ccc(Cl)cc1 (single isomer, unassigned) [59 Isomer 2] | 13.8 |
| CCC(CNC(C(=O)c1c[nH]c2ccccc12)c1ccccc1)c1ccc(Cl)cc1 (single isomer, unassigned) [59 Isomer 3] | > 30 |
| COc1ccc2c(C(=O)C(NCCc3ccc(Cl)cc3)c3ccccc3)c[nH]c2c1 (single isomer, unassigned) [60 Isomer 1] | 27.8 |
| O=C(c1c[nH]c2cc(OCc3ccccc3)ccc12)C(NCCc1ccc(F)cc1)c1ccccc1 (single isomer, unassigned) [61 Isomer 1] | > 30 |
| CN1CCC(c2ccc3c(C(=O)C(NCCc4ccc(C#N)cc4)c4ccccc4)c[nH]c3c2)CC1 (single isomer, unassigned) [64 Isomer 1] | 0.097 |
| CN1CCC(c2ccc3c(C(=O)C(NCCc4ccc(C#N)cc4)c4ccccc4)c[nH]c3c2)CC1 (single isomer, unassigned) [64 Isomer 2] | 0.08 |
| CC(=O)N1CCC(c2ccc3c(C(=O)C(NCCc4ccc(Cl)cc4)c4ccccc4)c[nH]c3c2)CC1 (single isomer, unassigned) [65 Isomer 1] | > 30 |
| Cn1cc(-c2ccc3c(C(=O)C(NCCc4ccc(S(N)(=O)=O)cc4)c4ccccc4)c[nH]c3c2)cn1 (single isomer, unassigned) [66 Isomer 1] | 0.96 |
| CNC(=O)c1ccc2c(C(=O)C(NCCc3ccc(C#N)cc3)c3ccccc3)c[nH]c2n1 (single isomer, unassigned) [67 Isomer 1] | 2.36 |
| CNC(=O)c1ccc2c(C(=O)C(NCCc3ccc(C#N)cc3)c3ccccc3)c[nH]c2n1 (single isomer, unassigned) [67 Isomer 2] | > 5 |
| Cc1cccc2c(C(=O)C(NC(C)Cc3ccc(Cl)cc3Cl)c3ccccc3)c[nH]c12 (single isomer, unassigned) [68 Isomer 2] | > 30 |
| Cc1cccc2c(C(=O)C(NC(C)Cc3ccc(Cl)cc3Cl)c3ccccc3)c[nH]c12 (single isomer, unassigned) [68 Isomer 3] | > 30 |
| Cc1cccc2c(C(=O)C(NC(C)Cc3ccc(Cl)cc3Cl)c3ccccc3)c[nH]c12 (single isomer, unassigned) [68 Isomer 4] | > 30 |
| CCNC(=O)c1ccc2c(C(=O)C(NCC(C)c3ccc(C#N)cc3)c3ccccc3)cnn2c1 (single isomer, unassigned) [69 Isomer 1] | 0.188 |
| CCNC(=O)c1ccc2c(C(=O)C(NCC(C)c3ccc(C#N)cc3)c3ccccc3)cnn2c1 (single isomer, unassigned) [69 Isomer 2] | 2.87 |
| CCNC(=O)c1ccc2c(C(=O)C(NCC(C)c3ccc(C#N)cc3)c3ccccc3)cnn2c1 (single isomer, unassigned) [69 Isomer 3] | > 5 |
| CC(CNC(C(=O)c1cnn2cc(C(=O)NC[C@@H](C)O)ccc12)c1ccccc1)c1ccc(C#N)cc1 (single isomer, unassigned) [70 Isomer 1] | > 2 |
| CC(CNC(C(=O)c1cnn2cc(C(=O)NC[C@@H](C)O)ccc12)c1ccccc1)c1ccc(C#N)cc1 (single isomer, unassigned) [70 Isomer 2] | 0.0643 |
